Test results: the supplement of paper PMC8671470

How the values were obtained:
Conditions in all cases: 72 h
[1] = tested on: BV-173
Summary of the method: (§1)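 Fifteen myeloid leukaemia lines in RPMI 1640 were treated for 72 h at 37 °C and 5% CO2 with five tenfold doses from 1 to 10,000 nM, in duplicate. ATP luminescence was normalised to vehicle and to a positive control at 10 µM, then fitted with a four-parameter log-logistic model. The IC50 came from these fits.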

[2] = tested on: HEL
Summary of the method: as §1

[3] = tested on: HL-60
Summary of the method: as §1

[4] = tested on: KCL-22
Summary of the method: as §1

[5] = tested on: KG-1
Summary of the method: as §1

[6] = tested on: LAMA-84
Summary of the method: as §1

[7] = tested on: ML-2
Summary of the method: as §1

[8] = tested on: MOLM-13
Summary of the method: as §1

[9] = tested on: SHI-1
Summary of the method: as §1

[10] = tested on: THP-1
Summary of the method: as §1

[11] = tested on: myeloid leukemia patient primary cells Pat.10; test: cell viability (% survival relative to DMSO control); higher = less cytotoxic
Summary of the method: (§2)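 Seventy compounds were pre-printed on 384-well plates at five tenfold concentrations between 1 and 10,000 nM, in duplicate. Thawed mononuclear cells purified by Ficoll from AML or CML patients were added at 10,000 cells/well in RPMI 1640 with 10% FBS for 72 h. Viability by CellTiter-Glo was normalised to DMSO and 10 μM proteasome-inhibitor wells. Where stated, area under the curve was taken from log-logistic fits made with the drc and PharmacoGx R packages, each fit having four parameters.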

[12] = tested on: myeloid leukemia patient primary cells Pat.11; test: as above
Summary of the method: as §2

[13] = tested on: myeloid leukemia patient primary cells Pat.12; test: as above
Summary of the method: as §2

[14] = tested on: myeloid leukemia patient primary cells Pat.13; test: as above
Summary of the method: as §2

[15] = tested on: myeloid leukemia patient primary cells Pat.14; test: as above
Summary of the method: as §2

[16] = tested on: myeloid leukemia patient primary cells Pat.15; test: as above
Summary of the method: as §2

[17] = tested on: myeloid leukemia patient primary cells Pat.1; test: as above
Summary of the method: as §2

[18] = tested on: myeloid leukemia patient primary cells Pat.2; test: as above
Summary of the method: as §2

[19] = tested on: myeloid leukemia patient primary cells Pat.3; test: as above
Summary of the method: as §2

[20] = tested on: myeloid leukemia patient primary cells Pat.4; test: as above
Summary of the method: as §2

[21] = tested on: myeloid leukemia patient primary cells Pat.5; test: as above
Summary of the method: as §2

[22] = tested on: myeloid leukemia patient primary cells Pat.6; test: as above
Summary of the method: as §2

[23] = tested on: myeloid leukemia patient primary cells Pat.7; test: as above
Summary of the method: as §2

[24] = tested on: myeloid leukemia patient primary cells Pat.8; test: as above
Summary of the method: as §2

[25] = tested on: myeloid leukemia patient primary cells Pat.9; test: as above
Summary of the method: as §2

[26] = tested on: HL-60; test: area under dose-response curve (viability, 1 nM-10 uM) (fraction (0-1)); higher = more sensitive
Summary of the method: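 Four-parameter log-logistic fits in drc and PharmacoGx supplied area under the curve where it is given. Underlying viability came from CellTiter-Glo, normalised to DMSO and proteasome-inhibitor wells, with the proteasome inhibitor at 10 μM. HL-60 cells in RPMI 1640 plus 10% FBS had been rescreened against the full library at five tenfold concentrations of 1–10,000 nM, in duplicate on 384-well plates, with DMSO or 100 nM of one of three metabolic inhibitors, for 72 h at 37 °C, 5% CO2.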

O=C(O)C1=CC(=C(c2ccc(O)c(C(=O)O)c2)c2ccc(O)c(C(=O)O)c2)C=CC1=O [Aurintricarboxylic acid]
Conditions	IC50 (cell viability) [µM]
[1]	2.72
[2]	3.3
[3]	> 10
[4]	> 10
[5]	> 10
[6]	> 10
[7]	> 10
[8]	2.64
[9]	> 10
[10]	> 10

Conditions	area under dose-response curve, co-treatment: AZD3965 100 nM	area under dose-response curve, co-treatment: DMSO vehicle	area under dose-response curve, co-treatment: GSK2194069 100 nM	area under dose-response curve, co-treatment: pictilisib 100 nM	cell viability, 1 nM [%]	cell viability, 10 nM [%]	cell viability, 100 nM [%]	cell viability, 1000 nM [%]	cell viability, 10000 nM [%]
[11]	–	–	–	–	98.4	90.3	91.9	> 100	> 100
[12]	–	–	–	–	> 100	95.8	> 100	> 100	> 100
[13]	–	–	–	–	96.5	97.4	99.8	> 100	99.6
[14]	–	–	–	–	89.1	91.4	94.1	> 100	93.4
[15]	–	–	–	–	92.5	> 100	98.6	> 100	92.1
[16]	–	–	–	–	96.4	> 100	89.3	86.6	87.3
[17]	–	–	–	–	92.9	94.4	96.2	> 100	> 100
[18]	–	–	–	–	98	99.7	97.8	> 100	98.8
[19]	–	–	–	–	> 100	> 100	99.7	91.7	> 100
[20]	–	–	–	–	99.3	81.2	83.3	> 100	91
[21]	–	–	–	–	> 100	88.3	91.7	> 100	> 100
[22]	–	–	–	–	99.8	97.5	> 100	> 100	97.7
[23]	–	–	–	–	87.2	94.1	> 100	> 100	70.9
[24]	–	–	–	–	92.5	87.6	79.7	94.2	79.4
[25]	–	–	–	–	> 100	99	88	> 100	53.2
[26]	< 0.0301	< 0.0301	< 0.0301	< 0.0301	–	–	–	–	–

O=C(O)Cn1nnc(-c2cc(N3CCC(Oc4cc(F)ccc4Br)CC3)no2)n1 [MK-8245]
Conditions	IC50 (cell viability) [µM]
[1]	> 10
[2]	> 10
[3]	> 10
[4]	> 10
[5]	> 10
[6]	> 10
[7]	> 10
[8]	0.643
[9]	> 10
[10]	> 10

Conditions	area under dose-response curve, co-treatment: AZD3965 100 nM	area under dose-response curve, co-treatment: DMSO vehicle	area under dose-response curve, co-treatment: GSK2194069 100 nM	area under dose-response curve, co-treatment: pictilisib 100 nM	cell viability, 1 nM [%]	cell viability, 10 nM [%]	cell viability, 100 nM [%]	cell viability, 1000 nM [%]	cell viability, 10000 nM [%]
[11]	–	–	–	–	56.6	80.7	> 100	54.5	4.72
[12]	–	–	–	–	> 100	96.4	> 100	> 100	97
[13]	–	–	–	–	> 100	88.3	> 100	95.7	93.6
[14]	–	–	–	–	87.2	88.5	99.8	95.8	95.5
[15]	–	–	–	–	95.5	90.3	99.3	90.2	89.8
[16]	–	–	–	–	95.9	91.5	93.5	> 100	95.2
[17]	–	–	–	–	96.4	77.4	98	97.5	98.5
[18]	–	–	–	–	> 100	97	> 100	> 100	96.3
[19]	–	–	–	–	> 100	98.2	78.1	62	57
[20]	–	–	–	–	97.3	96.4	81	97.3	> 100
[21]	–	–	–	–	> 100	93.9	90.6	94.3	70
[22]	–	–	–	–	97.8	97.2	97.3	> 100	97
[23]	–	–	–	–	97.4	93.6	82.9	> 100	56.7
[24]	–	–	–	–	> 100	89.4	94.8	91.6	> 100
[25]	–	–	–	–	82.3	69.4	79.2	85.3	71.9
[26]	< 0.0301	< 0.0301	< 0.0301	< 0.0301	–	–	–	–	–

Oc1ccc(Nc2nc(-c3ccc(Cl)cc3)cs2)cc1 [SKI II]
Conditions	IC50 (cell viability) [µM]
[1]	1.54
[2]	3.22
[3]	2.26
[4]	3.07
[5]	3.93
[6]	6.79
[7]	5.58
[8]	8.97
[9]	> 10
[10]	2.48

Conditions	area under dose-response curve, co-treatment: AZD3965 100 nM	area under dose-response curve, co-treatment: DMSO vehicle	area under dose-response curve, co-treatment: GSK2194069 100 nM	area under dose-response curve, co-treatment: pictilisib 100 nM	cell viability, 1 nM [%]	cell viability, 10 nM [%]	cell viability, 100 nM [%]	cell viability, 1000 nM [%]	cell viability, 10000 nM [%]
[11]	–	–	–	–	49.5	47.7	> 100	9.05	81.9
[12]	–	–	–	–	89.5	97.2	98.4	92	79.3
[13]	–	–	–	–	89.9	92.9	95.8	> 100	53.9
[14]	–	–	–	–	77.6	94.2	89.3	92.9	32.9
[15]	–	–	–	–	58.3	97.8	69.4	29.1	6.09
[16]	–	–	–	–	69.6	93.3	85.9	87.3	33.6
[17]	–	–	–	–	64.1	> 100	> 100	88.9	32.6
[18]	–	–	–	–	95.5	95.9	95.1	94.2	53.1
[19]	–	–	–	–	56.2	92.1	89.3	44.4	0.909
[20]	–	–	–	–	65.6	94.5	54.5	89.1	25.3
[21]	–	–	–	–	34.3	41.7	45.5	25	17
[22]	–	–	–	–	75.2	98.7	95.4	93.1	16.2
[23]	–	–	–	–	79.7	> 100	62.7	11.5	< 0
[24]	–	–	–	–	82.4	80.7	84.5	80	42.6
[25]	–	–	–	–	20.1	79.9	67.9	24.7	4.42
[26]	0.0929	0.0805	0.0628	0.151	–	–	–	–	–

Cc1c(-c2ccc(-c3ccccc3F)cc2)nc2ccc(F)cc2c1C(=O)O [Brequinar]
Conditions	IC50 (cell viability) [µM]
[1]	7.19
[2]	1.48
[3]	6.09
[4]	0.94
[5]	> 10
[6]	9.69
[7]	8.46
[8]	4.34
[9]	> 10
[10]	> 10

Conditions	area under dose-response curve, co-treatment: pictilisib 100 nM	cell viability, 1 nM [%]	cell viability, 10 nM [%]	cell viability, 100 nM [%]	cell viability, 1000 nM [%]	cell viability, 10000 nM [%]
[11]	–	58.9	81.4	56.6	77.9	57.7
[12]	–	97.9	> 100	> 100	> 100	97.7
[13]	–	22	99	93.2	98.4	95
[14]	–	> 100	93.4	96.6	94.2	84.6
[15]	–	89.4	81.1	73.4	65.6	32.3
[16]	–	91.1	85.4	87.7	98.9	87.7
[17]	–	93.1	89.3	97.5	92.2	88.6
[18]	–	> 100	92.7	97.1	95.2	99.9
[19]	–	> 100	58	30	33.1	20.7
[20]	–	0.431	90.6	94.7	87.5	86.4
[21]	–	66.1	60.8	47.9	33.1	6.89
[22]	–	> 100	> 100	93.9	97.8	96.8
[23]	–	81.2	87.1	62	60.6	55.3
[24]	–	91.5	82	78	97.6	88.4
[25]	–	88.1	59.6	36.9	50	10.6
[26]	< 0.0301	–	–	–	–	–

CC[C@@]1(O)C(=O)OCc2c1cc1n(c2=O)Cc2cc3c(CN(C)C)c(O)ccc3nc2-1 [Topotecan]
Conditions	IC50 (cell viability) [µM]
[1]	0.0114
[2]	0.0333
[3]	0.0225
[4]	0.0594
[5]	0.0427
[6]	0.0654
[7]	0.0245
[8]	0.018
[9]	0.024
[10]	0.289

Conditions	area under dose-response curve, co-treatment: AZD3965 100 nM	area under dose-response curve, co-treatment: DMSO vehicle	area under dose-response curve, co-treatment: GSK2194069 100 nM	area under dose-response curve, co-treatment: pictilisib 100 nM	cell viability, 1 nM [%]	cell viability, 10 nM [%]	cell viability, 100 nM [%]	cell viability, 1000 nM [%]	cell viability, 10000 nM [%]
[11]	–	–	–	–	84.6	88.3	35.4	6.65	1.3
[12]	–	–	–	–	99.8	97.2	92.4	76.2	53.3
[13]	–	–	–	–	95.3	97	92.1	93.5	48.3
[14]	–	–	–	–	85.7	91.7	92.3	97.4	21.9
[15]	–	–	–	–	96	97	72.4	58.2	6.19
[16]	–	–	–	–	95.4	89.4	83.5	54.8	0.856
[17]	–	–	–	–	83.6	80.9	98.6	96	28.6
[18]	–	–	–	–	90.7	92.9	95.9	72	39.5
[19]	–	–	–	–	90.9	89.8	20	18.6	2.85
[20]	–	–	–	–	75.3	84.2	> 100	82.5	4.14
[21]	–	–	–	–	91.7	66.1	53.1	19.8	0.265
[22]	–	–	–	–	> 100	97.4	94.6	75.1	32.5
[23]	–	–	–	–	80.1	94.3	81.4	34.7	< 0
[24]	–	–	–	–	76.3	69.7	93.5	87.2	27.3
[25]	–	–	–	–	78.4	58.3	31.8	58.8	1.24
[26]	0.608	0.585	0.58	0.597	–	–	–	–	–
